According to US10081609B2, “Compounds for inducing proliferation and differentiation of cells, and methods of use thereof” (The Broad Institute, Inc., priority 2013, dated 2018):

Legend:
[1] = system: human primary hepatocytes; assay: High-throughput liver platform, primary screening: secreted albumin by competitive ELISA; assay type: cell-based
Excerpt: In order to evaluate the phenotype of treated cells, a secondary readout was included to quantify hepatocyte functions via competitive ELISA. This biochemical assay measured the level of secreted albumin as a marker for protein synthesis functions of the cultured hepatocytes (FIG. 1A bottom).
FIG. 1B top summarizes the workflow of the screen. Primary screening was done on human primary hepatocytes, preconditioned for seven days by non-parenchymal cells in the screening platform. Upon stabilization in vitro, cultures were treated with the chemical library for 48 hours. All compounds were tested in duplicates, at a single concentration of 15 μM. This single concentration was selected via a pilot screen of ˜2,000 small molecules. All 12,480 small molecules were initially tested on a single donor of cryopreserved hepatocytes (donor a) in order to eliminate noise from donor-to-donor variability. Following compound treatment, media supernatants were collected for functional analyses via ELISA and cultures were fixed in 4% paraformaldehyde for proliferation analyses via imaging.

[2] = system: iPS-derived endothelial cells; assay: Differentiation of iPS-derived endothelial cells (nitric oxide); assay type: cell-based
Procedure: Cells were assayed for nitric oxide (NO), a mature marker for endothelial cells. CB=FPH2, M=FH1, E=PH1, while Null and DMSO are control runs with no additive and vehicle only, respectively.

iHeps = assay: CYP450 activities of treated iHeps through isoenzyme-specific probes; assay type: cell-based, human
Procedure: Culture media were collected and frozen at −20° C. until analysis. Albumin content was measured through sandwich ELISA assays (MP Biomedicals, Fitzgerald, Bethyl Laboratories) using horseradish peroxidase detection and 3,3′,5,5′-tetramethylbenzidine (TMB, Fitzgerald Industries) as a substrate. Urea concentration was determined colorimetrically using diacetylmonoxime with acid and heat (Stanbio Labs). To quantify CYP450 activity, at 48 hours after small molecule exposure, cultures were incubated with substrates (coumarin from Sigma for CYP2A6, luciferin-IPA from Promega for CYP3A4) for 4 hours at 37° C. Incubation medium was collected and metabolite concentration quantified via luminescence, or fluorescence after hydrolization of potential metabolite conjugates by β-glucuronidase/arylsulfatase (Roche, Ind.).
The ability of compounds of the invention to affect the differentiation and maturation of iHeps was tested. Undifferentiated iPS cells were cultured on Matrigel, supported by primary mouse embryonic fibroblasts. […]
To confirm the staining results, secreted levels of albumin and AFP via ELISA, and CYP450 activities through isoenzyme-specific probes that are either fluorescent or luminescent were measured. […]

[3] = system: primary human hepatocytes; assay: Expansion of primary human hepatocytes from six additional cell sources (Ki67/albumin staining, FACS); assay type: cell-based
Procedure: On day seven, the number of hepatocytes was quantified by FACS analysis (FIG. 6B). Day one untreated controls was added to the bar graph for reference.

**Q.** With `Cc1ccc(Cl)cc1N(CC(=O)Nc1c(F)cccc1F)S(C)(=O)=O` [FPH2, 2-(N-(5-chloro-2-methylphenyl)methylsulfonamido)-N-(2,6-difluorophenyl)acetamide] as the molecule, how does the “albumin secretion during primary screening” value [1] read?
**A.** similar, but weaker effects

**Q.** And the “differentiation of iPS-derived endothelial cells (nitric oxide)” value [2]?
**A.** induce differentiation

**Q.** And the CYP3A4 activity increase (iHeps)?
**A.** 45 times

**Q.** And the “number of hepatocytes by FACS” value ([3]; day seven, all donors)?
**A.** increase

**Q.** And the “Ki67 staining co-localized with albumin labeled hepatocytes” value ([3]; six additional cell sources, six days in culture)?
**A.** increased
